IC50 data for 34 compounds are collected here from patent US8163909B2, “Substituted hydroxyethyl amine compounds as beta-secretase modulators and methods of use” (Amgen Inc., priority 2007, dated 2012).

Where two headings read alike, the source gives them in different places.

The target of test [1] is Beta Secretase enzyme (BACE) (Homo sapiens, UniProt P56817). The experiment in a line: In vitro enzymatic BACE FRET (fluorescence resonance energy transfer) assay.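 Note: fluorescence read after 1 h with 50 nM quenched peptide substrate spanning the BACE cleavage site, in pH 4.2 acetate buffer containing 10% DMSO and nonionic detergent.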 The class given is biochemical.
The subject of test [2] is Aβ40 in conditioned medium of cells stably expressing Amyloid Precursor Protein (APP). Briefly: In vitro BACE cell-based assay (Aβ40 in conditioned medium, sandwich ELISA).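 Note: compounds added as a dilution series, secreted peptide quantified by europium time-resolved fluorescence readout, potency fitted from percent of control versus compound concentration.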 In general terms: An ELISA detects its analyte on a solid surface through an enzyme-linked reagent.
Where [3] appears, read: BACE enzyme assay, read-out: BACE1 FRET assay (IC50).
[4] abbreviates: Homo sapiens, HEK293, HEK cells, cell-based assay, read-out: HEK cell assay (IC50).
Where [5] appears, read: Table 1, read-out: BACE1 FRET assay.
[6] abbreviates: Homo sapiens, HEK293, Table 1, HEK cells, read-out: HEK cell assay.
Where [7] appears, read: BACE enzyme FRET assay, read-out: BACE1 FRET assay (IC50).
Setting [8] is: BACE enzyme assay, IC50's in uM, read-out: BACE1 FRET assay.
The mark [9] stands for this setting: HEK cells, cell-based assay, read-out: HEK cell assay (IC50).

Beta Secretase enzyme (BACE), sequence (P56817 46-501): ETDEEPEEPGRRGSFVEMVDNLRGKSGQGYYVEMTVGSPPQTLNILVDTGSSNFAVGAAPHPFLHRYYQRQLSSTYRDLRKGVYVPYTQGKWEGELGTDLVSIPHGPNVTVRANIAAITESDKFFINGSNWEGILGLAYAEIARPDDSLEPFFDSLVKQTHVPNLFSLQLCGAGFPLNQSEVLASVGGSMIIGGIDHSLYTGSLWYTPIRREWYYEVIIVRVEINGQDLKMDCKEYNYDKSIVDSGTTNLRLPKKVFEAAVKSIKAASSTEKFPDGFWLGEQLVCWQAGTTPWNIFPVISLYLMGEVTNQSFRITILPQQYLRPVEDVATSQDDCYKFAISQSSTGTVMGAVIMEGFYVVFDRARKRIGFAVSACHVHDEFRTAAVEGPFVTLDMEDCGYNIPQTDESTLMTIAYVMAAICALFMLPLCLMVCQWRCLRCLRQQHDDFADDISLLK

As to `CC(=O)N[C@@H](Cc1cc(F)cc(F)c1)[C@H](O)CN[C@H]1CC2(CCCC2)C(=O)c2ccc(CC(C)(C)C)cc21` [compound 90], the IC50 in test [1] (setting [3]) was 0.0103 µM; in test [2] (setting [4]), 0.0747 µM.

Turning to `COCC(=O)N[C@@H](Cc1ccccc1)[C@H](O)CN[C@H]1CC2(CCC2)Oc2ncc(CC(C)(C)CF)cc21` [compound 184], the IC50 in test [1] (setting [3]) came to 0.00246 µM; in test [2] (setting [4]), 0.00645 µM.

On to `CC(=O)N[C@@H](Cc1ccccc1)[C@H](O)CN[C@H]1CC2(CCC2)Oc2ncc(C[C@@H](C)C(F)(F)F)cc21` [compound 317], for which the IC50 in test [1] (setting [5]) was determined as 0.0197 µM; in test [2] (setting [6]) it was 0.0278 µM.

As for `CO[C@H](C)C(=O)N[C@@H](Cc1ccc2c(c1)OCO2)[C@H](O)CN[C@H]1CC2(CCC2)Oc2ncc(C[C@H](C)C(F)(F)F)cc21` [compound 340], the IC50 in test [1] (setting [5]) was 0.148 µM; in test [2] (setting [6]) it was 0.0906 µM.

Consider `CC(=O)N[C@@H](Cc1ccc2c(c1)OC(F)(F)O2)[C@H](O)CN[C@H]1CC2(CCC2)Oc2ncc(CC(C)(C)C)cc21` [compound 292], for which the IC50 came to 0.0325 µM in test [1] (setting [7]) and 0.159 µM in test [2] (setting [4]).

Turning to `CC(=O)N[C@@H](Cc1cccc(F)c1)[C@H](O)CN[C@H]1CC2(CCC2)Oc2ncc(OC(C)(F)F)cc21` [compound 151, N-((1S,2R)-3-(((4′S)-6′-((1,1-difluoroethyl)oxy)-3′,4′-dihydrospiro[cyclobutane-1,2′-pyrano[2,3-b]pyridin]-4′-yl)amino)-1-((3-fluorophenyl)methyl)-2-hydroxypropyl)acetamide], the values for the IC50 in test [1] (setting [3]) and in test [2] (setting [4]) were 0.0205 µM and 0.0841 µM, respectively.

For the compound `COCC(=O)N[C@@H](Cc1cccc(-c2nccs2)c1)[C@H](O)CN[C@H]1CC2(CCC2)Oc2cnc(CC(C)(C)C)cc21` [compound 807], the IC50 in test [1] (setting [8]) was 0.019 µM; in test [2] (Homo sapiens, HEK293, HEK cell-based assay, IC50's in uM, read-out: HEK cell assay), 0.054 µM.

For the compound `COCC(=O)N[C@@H](Cc1ccc2c(c1)OCO2)[C@H](O)CN[C@H]1CC2(CCC2)Oc2ccc(CC(C)(C)C)cc21` [compound 290], the IC50 in test [1] (setting [7]) is 0.0231 µM; in test [2] (setting [4]), 0.0549 µM.

In the case of `COC(C)C(=O)NC(Cc1cc(F)cc(F)c1)C(O)CNC1CC2(CCC2)Oc2ncc(CC(C)(C)C)cc21` [compound 103, (S)—N-((2S,3R)-1-(3,5-difluorophenyl)-3-hydroxy-4-((S)-6-neopentyl-3,4-dihydrospiro[cyclobutane-1,2H-pyrano[2,3-b]pyridin-4-ylamino)butan-2-yl)-2-methoxypropanamide], the IC50 in test [1] (setting [3]) was 0.0101 µM; in test [2] (setting [9]) it was 0.0268 µM.

As to `COC(C)C(=O)NC(Cc1cc(F)cc(F)c1)C(O)CNC1CC2(CCC2)Oc2ncc(CC(C)(C)C)cc21` [compound 102, (R)—N-((2S,3R)-1-(3,5-difluorophenyl)-3-hydroxy-4-((S)-6-neopentyl-3,4-dihydrospiro[cyclobutane-1,2H-pyrano[2,3-b]pyridin-4-ylamino)butan-2-yl)-2-methoxypropanamide], the IC50 in test [1] (setting [3]) came to 0.0053 µM; in test [2] (setting [9]) it was 0.0106 µM.

With `CC(=O)N[C@@H](Cc1ccc2c(c1)OCO2)[C@H](O)CN[C@H]1CC2(CCC2)Oc2c(F)cc(CC(C)(C)C)cc21` [compound 170], the IC50 is 0.0125 µM in test [1] (setting [3]) and 0.0535 µM in test [2] (setting [4]).

Turning to `COCC(=O)N[C@@H](Cc1cccc(F)c1)[C@H](O)CN[C@H]1CC2(CCC2)Oc2c1cc(CC(C)(C)C)nc2NCC(F)(F)F` [compound 143], the IC50 in test [1] (setting [3]) amounted to 0.0195 µM; in test [2] (setting [4]), 0.314 µM.

As to `CC(=O)CC(=O)N[C@@H](Cc1ccc2c(c1)OCO2)[C@H](O)CN[C@H]1CC2(CCC2)Oc2ncc(CC(C)(C)C)cc21` [compound 308], the IC50 in test [1] (setting [7]) was 0.0244 µM; in test [2] (setting [4]) it was 0.0209 µM.

Regarding `CNc1nc(CC(C)(C)C)cc2c1OC1(CCC1)C[C@@H]2NC[C@@H](O)[C@H](Cc1ccc2c(c1)OCO2)NC(C)=O` [compound 126], the IC50 was found to be 0.0484 µM in test [1] (setting [3]) and 0.0091 µM in test [2] (setting [4]).

`CO[C@H](C)C(=O)N[C@@H](Cc1cc(F)cc(F)c1)[C@H](O)CN[C@H]1CC2(CCC2)Oc2ncc(CC(F)(F)F)cc21` [compound 346]: the results for the IC50 in test [1] (setting [5]) and in test [2] (setting [6]) were 0.0102 µM and 0.0471 µM, respectively.

`CC(=O)N[C@@H](Cc1ccc2c(c1)OCO2)[C@H](O)CN[C@H]1CC2(CCC2)Oc2ncc([C@H](F)C(C)(C)C)cc21` [compound 182]: the IC50 in test [1] (setting [3]) was found to be 0.00701 µM; in test [2] (setting [4]), 0.016 µM.

With `CO[C@H](C)C(=O)N[C@@H](Cc1ccc(Cl)c(F)c1)[C@H](O)CN[C@H]1CC2(CCC2)Oc2ncc(CC(C)(C)C(F)F)cc21` [compound 227], the IC50 is 0.0151 µM in test [1] (setting [7]) and 0.0314 µM in test [2] (setting [4]).

On to `COCC(=O)N[C@@H](Cc1ccc(F)cc1)[C@H](O)CN[C@H]1CC2(CCC2)Oc2ncc([C@H](F)C(C)(C)C)cc21` [compound 179], for which the IC50 in test [1] (setting [3]) worked out at 0.00549 µM; in test [2] (setting [4]), 0.0186 µM.

In the case of `C#CCCC(=O)N[C@@H](Cc1cccc(F)c1)[C@H](O)CN[C@H]1CC2(CCC2)Oc2ncc(CC(C)(C)C)cc21` [compound 859], the IC50 in test [1] (setting [8]) is 0.004 µM; in test [2] (Homo sapiens, HEK293, cell-based assay, HEK cells, IC50's in uM, read-out: HEK cell assay), 0.027 µM.

For the compound `COCC(=O)NC(Cc1ccc2c(c1)OCO2)C(O)CNC1CC2(CC(C)C2)Oc2ncc(CC(C)C)cc21` [compound 133, N-((1S,2R)-1-(1,3-benzodioxol-5-ylmethyl)-2-hydroxy-3-(((1s,3R,4′S)-3-methyl-6′-(2-methylpropyl)-3′,4′-dihydrospiro[cyclobutane-1,2′-pyrano[2,3-b]pyridin]-4′-yl)amino)propyl)-2-(methyloxy)acetamide], the IC50 in test [1] (setting [3]) was found to be 0.0398 µM; in test [2] (setting [4]), 0.143 µM.

For `CNc1nc(CC(C)(C)C)cc2c1OC1(CCC1)C[C@@H]2N(C)C[C@@H](O)[C@H](Cc1ccc(F)cc1)NC(=O)[C@@H](C)OC` [compound 138], the IC50 in test [1] (setting [3]) came out at 0.178 µM; in test [2] (setting [4]), 0.162 µM.

Consider `CO[C@H](C(=O)N[C@@H](Cc1ccc(F)cc1)[C@H](O)CN[C@H]1CC2(CCC2)Oc2ncc(CC(C)(C)C)cc21)C(F)(F)F` [compound 64], for which the IC50 in test [1] (setting [3]) came to 0.617 µM; in test [2] (setting [4]) it was 0.0797 µM.

Turning to `CC(C)(C)Cc1cnc2c(c1)[C@@H](NC[C@@H](O)[C@H](Cc1ccc3c(c1)OCO3)NC(=O)C(F)(F)Cl)CC1(CCC1)O2` [compound 99], the results for the IC50 in test [1] (setting [3]) and in test [2] (setting [4]) were 0.0593 µM and 0.317 µM, respectively.

Consider `COCC(=O)N[C@@H](Cc1ccccc1)[C@H](O)CN[C@H]1CC2(CCC2)Oc2cnc(CC(C)(C)C)cc21` [compound 121], for which the IC50 in test [1] (setting [3]) stood at 0.0221 µM; in test [2] (setting [4]), 0.102 µM.

On to `COCC(=O)N[C@@H](Cc1ccc2c(c1)OCO2)[C@H](O)CN[C@H]1CC2(CCC2)Oc2ncc(CC(C)(C)F)cc21` [compound 285], for which the IC50 in test [1] (setting [7]) was determined as 0.057 µM; in test [2] (setting [4]) it was 0.0738 µM.

In the case of `CC(=O)NC(Cc1cccc(F)c1)C(O)CNC1CC2(CC(O)C2)Oc2ncc(CC(C)(C)C)cc21` [compound 231, N-((1S,2R)-3-(((1s,3S,4′S)-6′-(2,2-dimethylpropyl)-3-hydroxy-3′,4′-dihydrospiro[cyclobutane-1,2′-pyrano[2,3-b]pyridin]-4′-yl)amino)-1-((3-fluorophenyl)methyl)-2-hydroxypropyl)acetamide], the IC50 in test [1] (setting [7]) worked out at 0.00404 µM; in test [2] (setting [4]) it was 0.00304 µM.

On to `COCC(=O)N[C@@H](Cc1cc(F)cc(-c2nccn2C)c1)[C@H](O)CN[C@H]1CC2(CCC2)Oc2ncc(CC(C)(C)C)cc21` [compound 740, N-((1S,2R)-3-(((4′S)-6′-(2,2-dimethylpropyl)-3′,4′-dihydrospiro[cyclobutane-1,2′-pyrano[2,3-b]pyridin]-4′-yl)amino)-1-(3-fluoro-5-(1-methyl-1H-imidazol-2-yl)benzyl)-2-hydroxypropyl)-2-methoxyacetamide], for which the IC50 in test [1] (BACE enzyme assay IC50, read-out: BACE1 FRET assay) was determined as 0.051 µM; in test [2] (Homo sapiens, HEK293, HEK cell-based assay IC50, read-out: HEK cell assay), 0.006 µM.

`CC(C)(C)Cc1cnc2c(c1)[C@@H](NC[C@@H](O)[C@H](Cc1cccc(F)c1)NC(=O)C(C)(Cl)Cl)CC1(CCC1)O2` [compound 106]: the IC50 in test [1] (setting [3]) worked out at 0.0669 µM; in test [2] (setting [4]), 0.834 µM.

On to `COCC(=O)N[C@@H](Cc1ccc2c(c1)OCO2)[C@H](O)CN[C@H]1CC2(CCC2)Oc2ncc([C@H](F)C(C)(C)C)cc21` [compound 183], for which the IC50 in test [1] (setting [3]) was found to be 0.00863 µM; in test [2] (setting [4]) it was 0.0178 µM.

With `COCC(=O)N[C@@H](Cc1ccc2c(c1)OCO2)[C@H](O)CN[C@H]1CC2(CCC2)Oc2c1cc(CC(C)(C)C)nc2N` [compound 129], the IC50 turned out to be 0.119 µM in test [1] (setting [3]) and 0.0309 µM in test [2] (setting [4]).

For `CO[C@H](C)C(=O)N[C@@H](Cc1ccc(F)cc1)[C@H](O)CN[C@H]1CC2(CCC2)Oc2cnc(CC(C)(C)F)cc21` [compound 256], the figures for the IC50 in test [1] (setting [7]) and in test [2] (setting [4]) were 0.226 µM and 0.274 µM, respectively.

On to `CC(C)(C)Cc1cnc2c(c1)[C@@H](NC[C@@H](O)[C@H](Cc1ccc3c(c1)OCO3)NC(=O)C(Cl)Cl)CC1(CCC1)O2` [compound 100], for which the IC50 in test [1] (setting [3]) is 0.0127 µM; in test [2] (setting [9]), 0.0714 µM.

On to `COCC(=O)NC(Cc1ccc(Cl)cc1)C(O)CNC1CC2(CC(O)C2)Oc2ncc(CC(C)(C)C)cc21` [compound 234, N-((1S,2R)-1-((4-chlorophenyl)methyl)-3-(((1s,3S,4′S)-6′-(2,2-dimethylpropyl)-3-hydroxy-3′,4′-dihydrospiro[cyclobutane-1,2′-pyrano[2,3-b]pyridin]-4′-yl)amino)-2-hydroxypropyl)-2-(methyloxy)acetamide], for which the IC50 in test [1] (setting [7]) is 0.00404 µM; in test [2] (setting [4]), 0.0135 µM.

Take `COc1cc(C[C@H](NC(C)=O)[C@H](O)CN[C@H]2CC3(CCC3)Oc3ncc(CC(C)(C)C)cc32)ccc1F` [compound 78]: the IC50 in test [1] (setting [3]) came out at 0.00449 µM; in test [2] (setting [4]) it was 0.00763 µM.
